Measured values as given in patent US7754875B1, “Halide-free glucosamine base-organic acid salt compositions” (JFC Technologies, LLC, priority 2004, dated 2010).

What was measured:
[1] = Stability of sample in open dish exposed to the air at ambient temperature (color change); format: physicochemical
Description: (§1) 17.9 g of halide-free glucosamine base was mixed with 150 cc of purified water in a reaction vessel. After a clear solution was obtained, 16 g of α-hydroxy octanoic acid were slowly added, with stirring, to the glucosamine base solution. It was noted that the reaction was slightly exothermic since the temperature rose to 35° C. The reaction mixture was filtered and the water was removed by freeze-drying at a pressure of about 200 milliTorre and a temperature of about −45° C. 33 g of an off-white crystalline powder were obtained. The product was placed in a capped bottle that was placed in the refrigerator. […] A sample of the product was placed in an open dish exposed to the air at ambient temperature.
Example 1 was repeated using 300 cc of purified water to which 16.5 g of polyethylene glycol homopolymer had been added. 49 g (97.2% yield) of the white salt product were obtained. A sample of this product was placed in an open dish exposed to the air at ambient temperature.
A sample of the Example 3 product was placed in a dish exposed to the air at ambient temperature. […] A sample of the Example 4 product was placed in a dish exposed to the air at ambient temperature.

[2] = Stability of product kept in capped bottle in the refrigerator (color); format: physicochemical; settings: six months
Description: as §1

| color of sample after exposure to the air at ambient temperature ([1]; dish, 1 day) | SMILES | color of sample after exposure to the air at ambient temperature ([1]; open dish, 3 days) | color of product kept in the refrigerator [2] |
| --- | --- | --- | --- |
| – | CCCCCCC(O)C(=O)O.NC1C(O)OC(CO)C(O)C1O (stereo not drawn) [Example 1] | developed a yellow color | remained off-white in color |
| developed a yellow-orange color | N[C@H]1C(O)O[C@H](CO)[C@@H](O)[C@@H]1O.O=C(O)CC(O)(CC(=O)O)C(=O)O [Example 3] | – | – |
